The values below come from paper PMC9448386, “Discovery of novel conjugates of quinoline and thiazolidinone urea as potential anti-colorectal cancer agent” (Journal of Enzyme Inhibition and Medicinal Chemistry, 2022).

One assay has as its target HGFR (Homo sapiens, UniProt P08581). In words: Mobility shift assay, HGFR kinase inhibition. It is filed as biochemical. The settings on record: mean of two independent experiments. The procedure:
(§1) Kinase inhibitory activity against HGFR, MST1R, ABL, PDGFRβ, AXL, FLT3, RET, c-Src, and VEGFR-2 was evaluated by the mobility shift assay. Detailed operation could be found in our previous research.

For another assay, the target named is MST1R (Homo sapiens, UniProt Q04912). In words: Mobility shift assay, MST1R kinase inhibition. The settings on record: mean of two independent experiments. Type of assay: biochemical. The protocol: as §1
Sequence of MST1R (Q04912 25-1400): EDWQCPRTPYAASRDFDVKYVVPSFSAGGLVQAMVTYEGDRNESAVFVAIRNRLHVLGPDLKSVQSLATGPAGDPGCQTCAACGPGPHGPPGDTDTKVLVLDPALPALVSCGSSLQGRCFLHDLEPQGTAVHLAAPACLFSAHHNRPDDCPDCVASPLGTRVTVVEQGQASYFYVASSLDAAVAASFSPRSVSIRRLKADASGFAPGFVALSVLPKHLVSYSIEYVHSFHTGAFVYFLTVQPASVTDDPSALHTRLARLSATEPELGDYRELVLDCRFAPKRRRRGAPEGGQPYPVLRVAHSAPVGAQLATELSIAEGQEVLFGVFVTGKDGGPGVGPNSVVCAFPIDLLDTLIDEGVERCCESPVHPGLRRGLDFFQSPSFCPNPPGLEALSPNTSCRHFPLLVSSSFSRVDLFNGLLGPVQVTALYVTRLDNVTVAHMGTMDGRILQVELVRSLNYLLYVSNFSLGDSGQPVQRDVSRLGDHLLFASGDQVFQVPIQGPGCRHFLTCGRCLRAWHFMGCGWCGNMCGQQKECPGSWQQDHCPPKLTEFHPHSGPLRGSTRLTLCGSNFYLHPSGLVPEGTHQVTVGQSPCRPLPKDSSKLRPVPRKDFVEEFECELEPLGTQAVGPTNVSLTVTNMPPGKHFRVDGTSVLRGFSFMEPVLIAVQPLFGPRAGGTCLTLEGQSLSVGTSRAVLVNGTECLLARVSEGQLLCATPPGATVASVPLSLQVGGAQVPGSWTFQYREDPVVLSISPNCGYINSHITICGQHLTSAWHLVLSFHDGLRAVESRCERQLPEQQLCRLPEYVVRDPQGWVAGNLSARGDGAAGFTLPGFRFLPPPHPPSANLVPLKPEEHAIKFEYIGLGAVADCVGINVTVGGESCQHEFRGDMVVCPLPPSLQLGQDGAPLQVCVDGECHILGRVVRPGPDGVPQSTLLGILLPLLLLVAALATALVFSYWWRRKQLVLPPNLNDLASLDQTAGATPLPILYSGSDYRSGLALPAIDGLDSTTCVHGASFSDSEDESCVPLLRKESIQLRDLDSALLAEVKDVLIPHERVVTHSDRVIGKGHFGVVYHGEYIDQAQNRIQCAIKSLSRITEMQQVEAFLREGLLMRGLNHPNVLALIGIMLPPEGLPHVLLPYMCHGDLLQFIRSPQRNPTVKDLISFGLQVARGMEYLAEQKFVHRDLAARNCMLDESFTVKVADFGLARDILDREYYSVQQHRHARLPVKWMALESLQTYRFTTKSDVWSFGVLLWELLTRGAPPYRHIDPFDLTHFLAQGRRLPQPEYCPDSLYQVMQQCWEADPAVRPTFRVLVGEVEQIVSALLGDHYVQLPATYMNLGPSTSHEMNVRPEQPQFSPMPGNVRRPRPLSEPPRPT
The target of the next assay is T1, AXL (Homo sapiens, UniProt P30530).
T1 sequence (P30530 26-894): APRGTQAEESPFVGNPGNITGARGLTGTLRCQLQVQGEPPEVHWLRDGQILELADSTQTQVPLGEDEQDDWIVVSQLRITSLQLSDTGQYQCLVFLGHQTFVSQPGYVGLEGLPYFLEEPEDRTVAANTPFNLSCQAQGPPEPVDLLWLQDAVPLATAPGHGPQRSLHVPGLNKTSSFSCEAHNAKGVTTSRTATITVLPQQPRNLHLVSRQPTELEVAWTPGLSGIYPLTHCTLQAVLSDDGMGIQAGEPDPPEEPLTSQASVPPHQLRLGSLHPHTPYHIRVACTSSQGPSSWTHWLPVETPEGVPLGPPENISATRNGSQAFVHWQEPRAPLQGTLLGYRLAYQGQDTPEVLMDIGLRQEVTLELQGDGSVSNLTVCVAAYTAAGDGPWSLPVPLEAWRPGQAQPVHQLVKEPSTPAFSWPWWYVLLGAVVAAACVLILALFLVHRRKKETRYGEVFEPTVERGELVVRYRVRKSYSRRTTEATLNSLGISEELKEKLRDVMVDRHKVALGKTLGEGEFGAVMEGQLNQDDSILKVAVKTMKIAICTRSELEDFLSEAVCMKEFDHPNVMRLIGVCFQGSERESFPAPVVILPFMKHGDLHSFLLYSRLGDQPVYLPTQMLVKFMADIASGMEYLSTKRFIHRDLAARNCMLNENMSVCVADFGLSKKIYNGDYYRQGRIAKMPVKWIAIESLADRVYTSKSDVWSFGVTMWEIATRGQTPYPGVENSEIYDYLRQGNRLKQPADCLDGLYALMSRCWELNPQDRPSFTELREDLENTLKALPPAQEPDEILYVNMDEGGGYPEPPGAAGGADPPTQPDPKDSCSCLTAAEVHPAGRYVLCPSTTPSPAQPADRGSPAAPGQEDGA
In words: Mobility shift assay, AXL. Type of assay: biochemical. The settings on record: mean of two independent experiments, SD shown. The protocol:
as §1

A further assay has as its target VEGFR-2 (Homo sapiens, UniProt P35968). In words: Mobility shift assay, VEGFR-2. It is filed as biochemical. The settings on record: mean of two independent experiments, SD shown. The procedure: as §1
The target in a further assay is c-Src (Homo sapiens, UniProt P12931). In words: Mobility shift assay, c-Src. It is filed as biochemical. The settings on record: mean of two independent experiments, SD shown. The procedure:
as §1

The test system of assay [1] is COLO 205 cells. In words: Annexin V-FITC/PI apoptosis assay by flow cytometry. It is filed as cell-based. Conditions: 72 h; for total apoptosis (early apoptosis and advanced apoptosis): mean of three independent determinations. The procedure: Quantitative analysis of early-apoptotic cells, advanced-apoptotic cells and necrotic cells was determined. COLO 205 cells were stimulated with different concentrations of compound 10a for 72 h. […] The total apoptosis including early apoptosis and advanced apoptosis accounted for 58.8%, 29.3% and 21.0% (the mean value of three independent determinations) when COLO 205 cells were treated with compound 10a at the concentration of 1.0 μM, 0.33 μM and 0.11 μM, respectively.
COLO 205 cells (2.5 × 10^5) were seeded in two 12-well plates and treated with DMSO and compound 10a (0.11 μM, 0.33 μM and 1.0 μM) for 72 h (37 °C, 5% CO2). The cells were collected, centrifuged at 1000 rpm for 5 min, and then washed with cold PBS for twice. Apoptosis assays were conducted with CytoFLEX S (Beckman Coulter).
(In general: Flow cytometry measures light scatter and fluorescence of single cells or particles in a stream.)

For assay [2], the system named is COLO 205 cells. In words: Cell cycle arrest assay by flow cytometry. The settings on record: COLO 205, 0.33 μM and 0.11 μM, 24 h. Type of assay: cell-based. The procedure:
The antiproliferative activity of compound 10a was evaluated by flowcytometry analysis of COLO 205 cells. COLO 205 cells were treated with different concentrations (1.0 μM, 0.33 μM and 0.11 μM) of compound 10a for 24 h. […] At the concentration of 1.0 μM, cell cycle arrest could not be determined due to the massive dead cells (data not shown).
COLO 205 cells (2.5 × 10^5) were seeded in two 12-well plates and treated with DMSO and compound 10a (0.11 μM, 0.33 μM and 1.0 μM) for 24 h (37 °C, 5% CO2). Cells were collected, centrifuged at 1000 rpm for 5 min, washed with cold PBS for twice, and then fixed with 500 μL 75% cold ethanol at 4 °C. The cells were washed with cold PBS and stained with propidium iodide for 30 min in the dark. Cell-cycle analyses were conducted with Cytoflex S (Beckman Coulter).

Sequence of HGFR (P08581 25-1390): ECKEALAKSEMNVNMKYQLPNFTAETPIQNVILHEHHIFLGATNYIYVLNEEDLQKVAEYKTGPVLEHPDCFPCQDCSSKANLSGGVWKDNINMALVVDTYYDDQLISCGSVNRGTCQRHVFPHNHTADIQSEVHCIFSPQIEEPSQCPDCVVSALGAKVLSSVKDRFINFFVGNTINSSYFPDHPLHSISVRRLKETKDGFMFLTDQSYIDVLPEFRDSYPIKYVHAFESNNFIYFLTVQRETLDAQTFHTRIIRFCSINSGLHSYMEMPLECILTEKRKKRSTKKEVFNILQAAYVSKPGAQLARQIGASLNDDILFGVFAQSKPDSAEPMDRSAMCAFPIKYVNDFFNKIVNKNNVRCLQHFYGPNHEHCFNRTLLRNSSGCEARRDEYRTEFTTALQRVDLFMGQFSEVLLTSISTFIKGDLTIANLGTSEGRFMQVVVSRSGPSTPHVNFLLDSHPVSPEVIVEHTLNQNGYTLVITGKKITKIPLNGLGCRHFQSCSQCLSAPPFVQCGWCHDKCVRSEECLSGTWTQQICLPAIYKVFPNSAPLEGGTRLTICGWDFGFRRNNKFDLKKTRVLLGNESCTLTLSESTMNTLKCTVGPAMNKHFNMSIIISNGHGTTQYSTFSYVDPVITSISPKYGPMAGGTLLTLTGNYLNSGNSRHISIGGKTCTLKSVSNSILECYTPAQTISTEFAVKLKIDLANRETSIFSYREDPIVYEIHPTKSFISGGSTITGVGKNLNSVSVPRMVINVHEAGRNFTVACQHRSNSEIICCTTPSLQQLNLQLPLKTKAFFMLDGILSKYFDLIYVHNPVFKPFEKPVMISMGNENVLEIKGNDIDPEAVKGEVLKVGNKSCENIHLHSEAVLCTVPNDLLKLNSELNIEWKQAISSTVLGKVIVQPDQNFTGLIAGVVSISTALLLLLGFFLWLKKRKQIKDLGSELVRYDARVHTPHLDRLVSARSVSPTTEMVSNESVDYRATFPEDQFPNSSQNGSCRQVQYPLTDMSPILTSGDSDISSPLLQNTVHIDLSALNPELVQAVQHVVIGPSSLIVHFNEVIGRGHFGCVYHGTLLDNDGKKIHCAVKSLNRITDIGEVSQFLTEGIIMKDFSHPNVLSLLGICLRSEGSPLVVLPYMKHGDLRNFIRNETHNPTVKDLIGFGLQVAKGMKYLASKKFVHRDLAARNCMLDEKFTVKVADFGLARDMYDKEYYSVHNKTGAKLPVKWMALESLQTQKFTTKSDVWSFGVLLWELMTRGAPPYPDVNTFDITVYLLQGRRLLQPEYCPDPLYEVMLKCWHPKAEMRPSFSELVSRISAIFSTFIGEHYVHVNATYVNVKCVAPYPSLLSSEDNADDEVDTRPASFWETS
Sequence of VEGFR-2 (P35968 20-1356): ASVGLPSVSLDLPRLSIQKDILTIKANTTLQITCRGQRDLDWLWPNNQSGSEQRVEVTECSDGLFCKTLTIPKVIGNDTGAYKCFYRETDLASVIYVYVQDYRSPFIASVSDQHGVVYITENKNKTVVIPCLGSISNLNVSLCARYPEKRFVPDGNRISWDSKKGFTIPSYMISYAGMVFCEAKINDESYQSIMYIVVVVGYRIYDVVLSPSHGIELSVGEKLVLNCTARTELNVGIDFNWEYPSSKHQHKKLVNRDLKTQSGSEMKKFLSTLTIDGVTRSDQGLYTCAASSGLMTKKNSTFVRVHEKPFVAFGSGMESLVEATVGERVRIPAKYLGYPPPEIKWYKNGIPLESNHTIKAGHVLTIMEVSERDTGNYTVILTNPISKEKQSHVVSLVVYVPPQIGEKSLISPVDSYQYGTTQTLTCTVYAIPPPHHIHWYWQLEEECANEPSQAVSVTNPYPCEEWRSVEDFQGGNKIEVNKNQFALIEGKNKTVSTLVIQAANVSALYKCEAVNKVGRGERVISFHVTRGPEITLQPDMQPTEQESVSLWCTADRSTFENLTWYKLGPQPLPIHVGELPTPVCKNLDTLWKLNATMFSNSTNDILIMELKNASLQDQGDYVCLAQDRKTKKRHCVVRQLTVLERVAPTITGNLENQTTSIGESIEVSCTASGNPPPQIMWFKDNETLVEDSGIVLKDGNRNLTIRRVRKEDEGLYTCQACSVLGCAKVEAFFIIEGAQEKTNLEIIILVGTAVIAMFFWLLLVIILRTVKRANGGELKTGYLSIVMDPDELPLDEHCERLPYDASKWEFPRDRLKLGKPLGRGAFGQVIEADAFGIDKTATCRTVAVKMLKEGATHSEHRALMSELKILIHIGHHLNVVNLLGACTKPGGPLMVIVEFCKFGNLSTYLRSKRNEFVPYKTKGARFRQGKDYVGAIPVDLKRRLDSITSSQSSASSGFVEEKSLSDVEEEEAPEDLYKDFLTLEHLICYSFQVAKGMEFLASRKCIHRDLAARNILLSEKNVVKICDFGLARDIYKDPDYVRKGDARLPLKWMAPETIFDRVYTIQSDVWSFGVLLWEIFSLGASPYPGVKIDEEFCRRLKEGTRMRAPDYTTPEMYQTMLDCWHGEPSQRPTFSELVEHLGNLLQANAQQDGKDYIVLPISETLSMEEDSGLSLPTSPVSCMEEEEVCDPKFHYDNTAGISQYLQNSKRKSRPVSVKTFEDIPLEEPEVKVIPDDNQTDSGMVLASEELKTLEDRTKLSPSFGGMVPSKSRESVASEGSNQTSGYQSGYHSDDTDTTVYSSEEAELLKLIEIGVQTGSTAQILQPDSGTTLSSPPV
Sequence of c-Src (P12931 whole entry): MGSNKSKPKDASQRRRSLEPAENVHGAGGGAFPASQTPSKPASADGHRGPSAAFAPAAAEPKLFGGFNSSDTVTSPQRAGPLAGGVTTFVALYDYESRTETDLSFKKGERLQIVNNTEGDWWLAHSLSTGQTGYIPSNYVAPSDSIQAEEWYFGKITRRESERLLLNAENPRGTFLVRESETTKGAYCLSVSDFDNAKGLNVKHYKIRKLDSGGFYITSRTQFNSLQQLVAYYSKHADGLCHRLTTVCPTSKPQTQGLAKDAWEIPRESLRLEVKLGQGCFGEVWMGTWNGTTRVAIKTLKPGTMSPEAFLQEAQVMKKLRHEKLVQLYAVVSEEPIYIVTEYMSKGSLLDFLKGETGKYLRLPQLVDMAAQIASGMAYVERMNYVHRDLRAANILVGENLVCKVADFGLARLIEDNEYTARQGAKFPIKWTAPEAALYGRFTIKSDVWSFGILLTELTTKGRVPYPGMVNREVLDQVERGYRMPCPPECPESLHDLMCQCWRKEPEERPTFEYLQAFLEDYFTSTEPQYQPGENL

The term IC50 denotes the point on the concentration scale where inhibition reaches its midpoint. For the compound `COc1cc2c(Oc3ccc(NC(=O)NN4C(=O)CSC4c4c(F)cccc4F)cc3F)ccnc2cc1OC1CCN(CC(N)=O)CC1` (stereo not shown) [Compound 10a, 2–(4-((4–(4-(3–(2-(2,6-Difluorophenyl)-4-oxothiazolidin-3-yl)ureido)-2-fluorophenoxy)-6-methoxyquinolin-7-yl)oxy)piperidin-1-yl)acetamide], the IC50 on HGFR was 110 nM; on MST1R, 45 nM; on AXL, 950 ± 86 nM; at VEGFR-2, 1160 ± 110 nM; at c-Src, 420 ± 35 nM. Besides, the “total apoptosis (early apoptosis and advanced apoptosis)” value amounted to 21.0% with COLO 205 cells [1] (COLO 205, 0.11 μM); 29.3% in the assay with COLO 205 cells [1] (COLO 205, 0.33 μM); 58.8% in the assay on COLO 205 cells [1] (COLO 205, 1.0 μM). The induction of apoptosis result in the assay on COLO 205 cells [1] (COLO 205, 0.11–1.0 μM) was “could effectively induce COLO 205 cells apoptosis in a dose-dependent manner”. In addition, the cell cycle arrest result in the assay with COLO 205 cells [2] is on record as “could not arrest the cell-cycle progression”.
